Laboratory results taken from patent publication US11976073B2, “Bicyclic amines as CDK2 inhibitors” (Incyte Corporation, priority 2021, dated 2024).

Key:
CDK2/Cyclin E1 = target: T1, CDK2/Cyclin E1 (Homo sapiens, UniProt P24941); assay: CDK2/Cyclin E1 HTRF enzyme activity assay; format: biochemical; conditions: 1 mM ATP
T1 construct: utilize full-length human CDK2 co-expressed as N-terminal GST-tagged protein; GST (N); purchased Carna 04-165; host or cells: baculovirus expression system
Experimental: Example A. CDK2/Cyclin E1 HTRF Enzyme Activity Assay
CDK2/Cyclin E1 enzyme activity assays utilize full-length human CDK2 co-expressed as N-terminal GST-tagged protein with FLAG-Cyclin E1 in a baculovirus expression system (Carna Product Number 04-165). Assays were conducted in white 384-well polystyrene plates in a final reaction volume of 8 μL. CDK2/Cyclin E1 (0.25 nM) was incubated with the compounds of the Examples (40 nL serially diluted in DMSO) in the presence of ATP (50 μM or 1 mM) and 50 nM ULight™-labeled eIF4E-binding protein 1 (THR37/46) peptide (PerkinElmer) in assay buffer (containing 50 mM HEPES pH 7.5, 1 mM EGTA, 10 mM MgCl2, 2 mM DTT, 0.05 mg/mL BSA, and 0.01% Tween 20) for 60 minutes at room temperature. The reactions were stopped by the addition of EDTA and Europium-labeled anti-phospho-4E-BP1 antibody (PerkinElmer), for a final concentration of 15 mM and 1.5 nM, respectively. HTRF signals were read after 1 hour at room temperature on a PHERAstar FS plate reader (BMG Labtech). Data was analyzed with IDBS XLFit and GraphPad Prism 5.0 software using a three or four parameter dose response curve to determine IC50 for each compound.

CDK2 = CDK2 (Homo sapiens, UniProt P24941); assay: Enzymatic binding data against CDK2 (comparison of isomeric peaks); format: biochemical; conditions: Peak 1 vs Peak 2 of Example 2, TFA salts
Experimental: To a solution of 6-(1-(1-ethoxyethyl)-1H-pyrazol-4-yl)-5-(1-(trifluoromethyl)cyclobutoxy)-[1,2,4]triazolo[…] (20 mg, 0.05 mmol) and 4-(methylsulfonyl)cyclohexan-1-one (26 mg, 0.15 mmol) in DCE (0.8 mL) was added TFA (0.2 mL) and sodium triacetoxyborohydride (31 mg, 0.15 mmol) and the resulting solution was stirred at 60° C. After 4 h, a second aliquot of 4-(methylsulfonyl)cyclohexan-1-one (13 mg, 0.08 mmol) and sodium triacetoxyborohydride (15 mg, 0.08 mmol) was added and stirring was continued overnight at 60° C. The volatiles were removed and the residue was dissolved in CH3CN and purified by prep-HPLC (Sunfire C18 column, eluting with a gradient of 21% to 39% acetonitrile/water containing 0.1% TFA over 12 minutes at a flow rate of 60 mL/min) to afford two isomeric peaks as their TFA salts. Peak 1 eluted at 8.8 min and Peak 2 eluted at 9.9 min. […] LC-MS calculated for C20H25F3N7O3S (M+H)^+: m/z=500.2; found 500.2.

Compound | IC50 (CDK2/Cyclin E1) [µM] | relative activity of the isomeric peaks against CDK2 (CDK2)
CC(C)Oc1c(-c2cn[nH]c2)ncn2nc(NC3CCC(S(C)(=O)=O)CC3)nc12 (single isomer, unassigned) [Example 1, 8-Isopropoxy-N-(4-(methylsulfonyl)cyclohexyl)-7-(1H-pyrazol-4-yl)-[1,2,4]triazolo[1,5-c]pyrimidin-2-amine] | ≤ 0.01 | 
CS(=O)(=O)C1CCC(Nc2nc3cnc(-c4cn[nH]c4)c(OC4(C(F)(F)F)CCC4)n3n2)CC1 (single isomer, unassigned) [Example 2, N-(4-(Methylsulfonyl)cyclohexyl)-6-(1H-pyrazol-4-yl)-5-(1-(trifluoromethyl)cyclobutoxy)-[1,2,4]triazolo[1,5-a]pyrazin-2-amine] | ≤ 0.01 | more active isomer
